Results reported in ChEMBL document CHEMBL2203023, “Synopsis of some recent tactical application of bioisosteres in drug design” (J Med Chem, 2011).

Key:
in vitro [1] = conditions: human, liver microsomes
in vitro [2] = conditions: mouse, liver microsomes
physchem [3] = assay: physchem
physchem [4] = conditions: octanol/water
physchem [5] = conditions: octanol/water, pH 7.4
[6] = system: Human immunodeficiency virus 1; assay: microbe, parasite or virus in culture
cells = conditions: Homo sapiens, Platelet, Plasma
physchem [7] = assay: physchem; remark: listed apart in the source
Platelet [8] = assay: cells; conditions: Homo sapiens, Plasma
Platelet [9] = assay: cells; conditions: Homo sapiens, Plasma; remark: listed apart in the source
Rattus norvegicus = organism: Rattus norvegicus; assay: animal or person; conditions: read-out: INH
in vitro [10] = conditions: human, Caco-2
in vivo [11] = conditions: rat, po
in vitro [12] = conditions: human, Caco-2; remark: listed apart in the source
in vitro [13] = conditions: rat, liver microsomes
in vitro [14] = conditions: human, liver microsomes; remark: listed apart in the source
physchem [15] = conditions: octanol/water, pH 7.4; remark: listed apart in the source
[16] = system: Respiratory syncytial virus; assay: microbe, parasite or virus in culture; conditions: human respiratory syncytial virus
Syrian golden hamster = assay: animal or person; conditions: Mesocricetus auratus
in vivo [17] = conditions: rat
clinical = conditions: human, in vivo

CN(C)CCCCc1ccc(C2COC2)cc1
microsomal CLint (in vitro [1]): 2 µL/min/mg | microsomal CLint (in vitro [2]): 27 µL/min/mg | solubility (physchem [3]): 4000 µg/mL

CN(C)CCCCc1ccc(C(C)(C)C)cc1
microsomal CLint (in vitro [1]): 16 µL/min/mg | logP (physchem [4]): 4.3 | logD (physchem [5]): 1.8 | microsomal CLint (in vitro [2]): 417 µL/min/mg | solubility (physchem [3]): < 1 µg/mL

CN(C)CCCCc1ccc(C2(C)COC2)cc1
microsomal CLint (in vitro [2]): 43 µL/min/mg | solubility (physchem [3]): 4400 µg/mL

CN(C)CCC1(Cc2ccc(C(C)(C)C)cc2)COC1
microsomal CLint (in vitro [1]): 6 µL/min/mg | microsomal CLint (in vitro [2]): 13 µL/min/mg | solubility (physchem [3]): 4100 µg/mL

CN(C)C1(CCCc2ccc(C(C)(C)C)cc2)COC1
microsomal CLint (in vitro [1]): 13 µL/min/mg | microsomal CLint (in vitro [2]): 580 µL/min/mg | solubility (physchem [3]): 57 µg/mL

CN(C)CCCC1(c2ccc(C(C)(C)C)cc2)COC1
microsomal CLint (in vitro [2]): 147 µL/min/mg | solubility (physchem [3]): 270 µg/mL

O=C(N[C@H]1c2ccccc2C[C@H]1O)[C@H](Cc1ccccc1)CC(O)C[C@@H](Cc1ccccc1)C(=O)N[C@H]1c2ccccc2C[C@H]1O
EC90 [6]: 23 nM

NCc1cc(F)c(O)c(F)c1
logP (physchem [4]): 1.01

O=C(O)/C=C/c1cccc(CCc2nc(-c3ccccc3)c(-c3ccccc3)o2)c1
EC50 (cells): 660 nM

O=C(O)CCc1cccc(CCc2nc(-c3ccccc3)c(-c3ccccc3)o2)c1
EC50 (cells): 16000 nM

O=C(O)/C=C/c1cccc(OCc2nc(-c3ccccc3)c(-c3ccccc3)o2)c1
EC50 (cells): 14000 nM

Oc1c(F)cccc1F
pKa (physchem [7]): 7.12

O=C(O)COc1cccc(-c2ocnc2-c2nc(-c3ccccc3)c(-c3ccccc3)o2)c1
EC50 (Platelet [8]): 27 nM | EC50 (Platelet [9]): 27 nM

O=c1c(O)c(-c2ccccc2)c1=O
pKa (physchem [7]): 0.37

O=S(=O)(Nc1ccncc1Oc1ccccc1)C(F)(F)F
inhibition in vivo at 30 mg/kg (Rattus norvegicus): 54.1%

O=C(c1ccccc1)c1ccn(-c2cc(F)c(O)c(F)c2)c1
logP (physchem [4]): 3.56

Cc1nccn1-c1ccc(NC(=O)c2cc(C(F)(F)F)nn2-c2ccc3onc(N)c3c2)c(F)c1
Papp (in vitro [10]): 7.41 ×10⁻⁶ cm/s

Cc1nccn1-c1ccc(NC(=O)c2cc(C(F)(F)F)nn2-c2ccc3onc(N)c3c2)c(C#N)c1
Papp (in vitro [10]): < 0.1 ×10⁻⁶ cm/s

CCc1cc(C#N)ccc1Nc1c(N[C@H](C)C(C)(C)C)c(=O)c1=O
bioavailability (in vivo [11]): 70%

O=C(N[C@H]1c2ccccc2C[C@H]1O)[C@H](Cc1ccccc1)C[Si](O)(O)C[C@@H](Cc1ccccc1)C(=O)N[C@H]1c2ccccc2C[C@H]1O
EC90 [6]: 170 nM

O=C(CCCN1CC[Si](O)(c2ccc(Cl)cc2)CC1)c1ccc(F)cc1
Papp (in vitro [12]): 19.8 ×10⁻⁶ cm/s | pKa (physchem [7]): 9.27 | half-life (in vitro [13]): 18 min | solubility (physchem [3]): 78 µM | half-life (in vitro [14]): 65 min | logD (physchem [15]): 2.77

COC(=O)N[C@@H](C(=O)NCCCC[C@H](CO)N(CC(C)C)S(=O)(=O)c1ccc(CN)cc1)C(c1ccccc1)c1ccccc1
EC50 [6]: 30 nM

C=C(C)n1c(=O)n(Cc2nc3ccccc3n2CCCC#N)c2cnccc21
EC50 [16]: 3 nM | half-life (in vitro [14]): 11 min

COc1ccc(C2[C@@H](CCCc3ccccc3)C(=O)N2c2ccc(OC)cc2)cc1 (stereo not given in full)
ED50 (Syrian golden hamster): 2.2 mg/kg

NCc1ccc(F)c(O)c1F
logP (physchem [4]): 1.01

O=C(O)CCc1cccc(OCc2nc(-c3ccccc3)c(-c3ccccc3)o2)c1
EC50 (cells): > 80000 nM

O=C(O)COc1cccc(/C=C\c2nc(-c3ccccc3)c(-c3ccccc3)o2)c1
EC50 (Platelet [8]): 180 nM | EC50 (Platelet [9]): 180 nM

O=C(O)COc1cccc(OCc2nc(-c3ccccc3)c(-c3ccccc3)o2)c1
EC50 (cells): 1200 nM

O=C(O)COc1cccc(-c2ncoc2-c2nc(-c3ccccc3)c(-c3ccccc3)o2)c1
EC50 (Platelet [8]): 160 nM | EC50 (Platelet [9]): 160 nM

Cc1nccn1-c1ccc(NC(=O)c2cc(C(F)(F)F)nn2-c2ccc3onc(N)c3c2)cc1
Papp (in vitro [10]): 0.82 ×10⁻⁶ cm/s

O=C(O)Cn1ccc(C(=O)c2ccccc2)c1
logP (physchem [4]): 1.23

COc1ccc(C(CN(C)C)[Si]2(O)CCCCC2)cc1 (racemic)
logP (physchem [4]): 3.21 | pKa (physchem [7]): 9.7 | logD (physchem [15]): 0.92

COc1ccc(C(CN(C)C)C2(O)CCCCC2)cc1 (racemic) [VENLAFAXINE]
logP (physchem [4]): 3.13 | logD (physchem [15]): 0.88

Cc1ccc(-c2cc(C(F)(F)F)nn2-c2ccc(S(N)(=O)=O)cc2)cc1 [CELECOXIB]
half-life (in vivo [17]): 3.5 h

O=C1N(Cc2ccc(CO)cc2)[C@H](Cc2ccccc2)[C@H](O)[C@@H](O)[C@@H](Cc2ccccc2)N1Cc1ccc(CO)cc1 [DMP-323]
EC90 [6]: 57 nM

O=C1[C@H](CC[C@H](O)c2ccc(F)cc2)[C@@H](c2ccc(O)cc2)N1c1ccc(F)cc1 [EZETIMIBE]
ED50 (Syrian golden hamster): 0.04 mg/kg

O=C(CCCN1CCC(O)(c2ccc(Cl)cc2)CC1)c1ccc(F)cc1 [HALOPERIDOL]
Papp (in vitro [12]): 18.9 ×10⁻⁶ cm/s | solubility (physchem [3]): 90 µM | logD (physchem [15]): 2.42

CC#CCC(C)[C@H](O)/C=C/[C@@H]1[C@H]2C/C(=C/CCCC(=O)O)C[C@H]2C[C@H]1O (stereo not given in full) [ILOPROST]
half-life (clinical): 20 min

CS(=O)(=O)c1ccc(-n2nc(C(F)(F)F)cc2-c2ccc(F)cc2)cc1 [SC-58125]
half-life (in vivo [17]): 221 h
